From patent US10183943B2, “Heterocyclic compounds and their use in preventing or treating bacterial infections” (MUTABILIS, priority 2015, dated 2019)

Columns and labels:
TEM-1 = biological target: T1, TEM-1 (Escherichia coli, UniProt P62593); test: β-lactamase inhibitory activity, determination of IC50 (nitrocefin hydrolysis); type: biochemical
T1 construct: made in house; host or cells: E. coli

SHV-1 = biological target: T2, SHV-1 (Klebsiella pneumoniae, UniProt P0AD64); test: as above; type: biochemical
T2 construct: made in house; host or cells: E. coli

CTX-M-15 = biological target: T3, CTX-M-15 (Escherichia coli, UniProt Q9EXV5); test: as above; type: biochemical; conditions: class (A); nitrocefin 200 μM, 30 min pre-incubation; read-out: IC50 β-lactamase CTX-M-15
T3 construct: made in house; host or cells: E. coli

KPC-2 = biological target: T4, KPC-2 (Klebsiella pneumoniae, UniProt Q9F663); test: as above; type: biochemical; conditions: class (A); nitrocefin 200 μM, 30 min pre-incubation; read-out: IC50 β-lactamase KPC-2
T4 construct: made in house; host or cells: E. coli

OXA-1 = biological target: T5, OXA-1 (Escherichia coli, UniProt P13661); test: as above; type: biochemical; conditions: class (D); nitrocefin 200 μM, 30 min pre-incubation; read-out: IC50 β-lactamase OXA-1
T5 construct: made in house; host or cells: E. coli

OXA-11 = biological target: T6, OXA-11 (Pseudomonas aeruginosa, UniProt Q06778); test: as above; type: biochemical
T6 construct: made in house; host or cells: E. coli

OXA-15 = biological target: T7, OXA-15 (Pseudomonas aeruginosa, UniProt Q51574); test: biochemical
T7 construct: made in house; host or cells: E. coli

OXA-48 = biological target: T8, OXA-48 (Klebsiella pneumoniae, UniProt Q6XEC0); test: β-lactamase inhibitory activity, determination of IC50 (nitrocefin hydrolysis); type: biochemical; conditions: class (D); nitrocefin 200 μM, 30 min pre-incubation; read-out: IC50 β-lactamase OXA-48
T8 construct: made in house; host or cells: E. coli

[1] = system: E. cloacae 260508 (TEM-1, CTX-M-15); test: MIC of compounds alone, broth microdilution; type: cell-based; conditions: Enterobacter cloacae, read-out: MIC compounds of the invention alone
Procedure, shortened: (§1)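 Broth microdilution per CLSI M7-A7: compounds alone, in DMSO, challenged with log-phase bacteria at 5×10^5 cfu/mL in cation-adjusted Mueller-Hinton broth. Plates incubated 16-20 h at 35° C in ambient air; MIC is the lowest concentration preventing visible growth.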

E. cloacae P99 (AmpC) = test: MIC of compounds alone, broth microdilution; type: cell-based; conditions: Enterobacter cloacae; strain P99 (E. cloacae); read-out: MIC compounds of the invention alone
Procedure, shortened: as §1

[2] = system: E. cloacae UFR51 (SHV-12, IMP-8); test: MIC of compounds alone, broth microdilution; type: cell-based; conditions: Enterobacter cloacae; strain UFR51 (E. cloacae); read-out: MIC compounds of the invention alone
Procedure, shortened: as §1

[3] = system: E. cloacae UFR85 (TEM-1, CTX-M-15, AmpC); test: MIC of compounds alone, broth microdilution; type: cell-based; conditions: Enterobacter cloacae, read-out: MIC compounds of the invention alone
Procedure, shortened: as §1

[4] = system: E. coli 131119 (TEM-1, OXA-48); test: MIC of compounds alone, broth microdilution; type: cell-based; conditions: Escherichia coli; strain 131119 (E. coli); read-out: MIC compounds of the invention alone
Procedure, shortened: as §1

E. coli RGN238 (OXA-1) = test: MIC of compounds alone, broth microdilution; type: cell-based; conditions: Escherichia coli; strain RGN238 (E. coli); read-out: MIC compounds of the invention alone
Procedure, shortened: as §1

[5] = system: E. coli UFR18 (CTX-M-15, OXA-204); test: MIC of compounds alone, broth microdilution; type: cell-based; conditions: Escherichia coli; strain UFR18 (E. coli); read-out: MIC compounds of the invention alone
Procedure, shortened: as §1

[6] = system: E. coli UFR32 (TEM-1, VEB-1, OXA-10); test: MIC of compounds alone, broth microdilution; type: cell-based; conditions: Escherichia coli; strain UFR32 (E. coli); read-out: MIC compounds of the invention alone
Procedure, shortened: as §1

[7] = system: E. coli UFR61O (TEM-1, KPC-2); test: MIC of compounds alone, broth microdilution; type: cell-based; conditions: Escherichia coli; strain UFR61O (E. coli); read-out: MIC compounds of the invention alone
Procedure, shortened: as §1

[8] = system: E. coli UFR74 (SHV-1, DHA-1); test: MIC of compounds alone, broth microdilution; type: cell-based; conditions: Escherichia coli; strain UFR74 (E. coli); read-out: MIC compounds of the invention alone
Procedure, shortened: as §1

[9] = system: K. oxytoca UFR21 (TEM-1, CTX-M-15, OXA-48); test: MIC of compounds alone, broth microdilution; type: cell-based; conditions: Klebsiella oxytoca, read-out: MIC compounds of the invention alone
Procedure, shortened: as §1

[10] = system: K. pneumoniae 6299 (TEM-1, SHV-11, OXA-163); test: MIC of compounds alone, broth microdilution; type: cell-based; conditions: Klebsiella pneumoniae; strain 6299 (K. pneumoniae); read-out: MIC compounds of the invention alone
Procedure, shortened: as §1

[11] = system: K. pneumoniae BAA-1898 (TEM-1, SHV-11, SHV-12, KPC-2); test: MIC of compounds alone, broth microdilution; type: cell-based; conditions: Klebsiella pneumoniae, BAA1898; strain BAA-1898 (K. pneumoniae); read-out: MIC compounds of the invention alone
Procedure, shortened: as §1

[12] = system: K. pneumoniae UFR24 (TEM-1, SHV-2, SHV-11, OXA-1, OXA-48, OXA-47); test: MIC of compounds alone, broth microdilution; type: cell-based; conditions: Klebsiella pneumoniae; strain UFR24 (K. pneumoniae); read-out: MIC compounds of the invention alone
Procedure, shortened: as §1

[13] = system: K. pneumoniae UFR39 (CTX-M-15, NDM-1); test: MIC of compounds alone, broth microdilution; type: cell-based; conditions: Klebsiella pneumoniae; strain UFR39 (K. pneumoniae); read-out: MIC compounds of the invention alone
Procedure, shortened: as §1

[14] = system: K. pneumoniae UFR77 (CMY-2); test: MIC of compounds alone, broth microdilution; type: cell-based; conditions: Klebsiella pneumoniae; strain UFR77 (K. pneumoniae); read-out: MIC compounds of the invention alone
Procedure, shortened: as §1

[15] = system: P. aeruginosa CIP107051 (TEM-24); test: MIC of compounds alone, broth microdilution; type: cell-based; conditions: Pseudomonas aeruginosa; strain CIP107051 (P. aeruginosa); read-out: MIC compounds of the invention alone
Procedure, shortened: as §1

[16] = system: E. cloacae UFR51 (SHV-12, IMP-8); test: MIC of ceftazidime (CAZ) in combination with compounds at 4 μg/mL, broth microdilution; type: cell-based; conditions: strain UFR51; MIC of CAZ with compound fixed at 4 μg/mL
Method: (§2) Method 2: MIC of Compounds and Synergy with Ceftazidime Against Bacterial Isolates (Table 2 and 3)
(§3) Compounds of the present invention were assessed against genotyped bacterial strains alone or in combination with the β-lactam ceftazidime (CAZ). In the assays, MICs of said compounds, or of ceftazidime at fixed concentrations of said compounds were determined by the broth microdilution method according to the Clinical Laboratory Standards Institute (CLSI-M7-A7). Briefly, compounds alone according to the invention were prepared in DMSO and spotted (2 μL each) on sterile polystyrene plates (Corning, 3788). Compounds and ceftazidime dilutions were prepared in DMSO and spotted (1 μL each) on sterile polystyrene plates (Corning, 3788). Log phase bacterial suspensions were adjusted to a final density of 5×10^5 cfu/mL in cation-adjusted Mueller-Hinton broth (Becton-Dickinson) and added to each well (98 μL). Microplates were incubated for 16-20 h at 35° C. in ambient air. The MIC of the compounds was defined as the lowest concentration of said compounds that prevented bacterial growth as read by visual inspection. The MIC of ceftazidime at each compound concentration was defined as the lowest concentration of ceftazidime that prevented bacterial growth as read by visual inspection.

[17] = system: E. coli UFR41 (TEM-1, CTX-M-15, CMY-2, OXA-1, NDM-4); test: as above; type: cell-based; conditions: strain UFR41; MIC of CAZ with compound fixed at 4 μg/mL
Method: as §2, §3

AmpC (P99) = AmpC (P99) (Enterobacter cloacae, UniProt P05364); test: β-lactamase inhibitory activity, determination of IC50 (nitrocefin hydrolysis)
AmpC P. aeruginosa = AmpC P. aeruginosa (Pseudomonas aeruginosa, UniProt P24735); test: as above
Chain of AmpC P. aeruginosa (P24735 27-397): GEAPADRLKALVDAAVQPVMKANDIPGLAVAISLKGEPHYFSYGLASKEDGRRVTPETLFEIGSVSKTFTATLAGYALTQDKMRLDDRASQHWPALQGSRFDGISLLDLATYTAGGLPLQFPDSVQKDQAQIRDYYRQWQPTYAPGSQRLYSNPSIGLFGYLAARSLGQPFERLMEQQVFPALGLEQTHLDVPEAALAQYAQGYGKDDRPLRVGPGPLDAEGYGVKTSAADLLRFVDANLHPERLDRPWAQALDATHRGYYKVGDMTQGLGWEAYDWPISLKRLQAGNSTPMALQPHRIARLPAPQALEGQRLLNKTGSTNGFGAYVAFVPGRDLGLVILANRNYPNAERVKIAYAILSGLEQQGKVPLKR

T5 sequence (P13661 26-276): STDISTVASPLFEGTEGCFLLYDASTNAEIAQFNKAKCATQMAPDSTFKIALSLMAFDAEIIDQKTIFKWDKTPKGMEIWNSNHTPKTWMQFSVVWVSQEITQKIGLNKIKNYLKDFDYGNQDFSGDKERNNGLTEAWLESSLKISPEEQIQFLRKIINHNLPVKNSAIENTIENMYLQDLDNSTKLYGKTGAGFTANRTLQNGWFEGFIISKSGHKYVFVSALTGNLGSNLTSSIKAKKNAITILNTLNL
T3 sequence (Q9EXV5 entry or part of it): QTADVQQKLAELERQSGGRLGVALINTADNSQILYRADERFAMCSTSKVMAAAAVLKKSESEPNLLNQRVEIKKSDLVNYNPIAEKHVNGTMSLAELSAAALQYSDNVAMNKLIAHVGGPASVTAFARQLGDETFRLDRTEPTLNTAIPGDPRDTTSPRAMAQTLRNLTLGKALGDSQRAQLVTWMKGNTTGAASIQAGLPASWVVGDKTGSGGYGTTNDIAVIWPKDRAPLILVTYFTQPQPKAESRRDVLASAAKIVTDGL
T1 sequence (P62593 24-286 limits assumed): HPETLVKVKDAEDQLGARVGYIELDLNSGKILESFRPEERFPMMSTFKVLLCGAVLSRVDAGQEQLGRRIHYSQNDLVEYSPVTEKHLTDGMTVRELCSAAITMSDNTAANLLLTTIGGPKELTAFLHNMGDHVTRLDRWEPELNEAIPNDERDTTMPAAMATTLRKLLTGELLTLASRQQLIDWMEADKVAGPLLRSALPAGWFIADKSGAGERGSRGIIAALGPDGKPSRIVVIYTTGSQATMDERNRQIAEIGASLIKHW
T8 sequence (Q6XEC0 23-265 limits assumed): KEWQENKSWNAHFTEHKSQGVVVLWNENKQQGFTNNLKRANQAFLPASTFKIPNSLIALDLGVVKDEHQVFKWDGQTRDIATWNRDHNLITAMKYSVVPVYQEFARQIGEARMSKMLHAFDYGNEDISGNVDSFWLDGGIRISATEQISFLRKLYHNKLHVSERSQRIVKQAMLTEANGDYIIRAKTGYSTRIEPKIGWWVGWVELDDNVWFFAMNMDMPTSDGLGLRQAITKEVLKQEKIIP
Chain of AmpC (P99) (P05364 21-381): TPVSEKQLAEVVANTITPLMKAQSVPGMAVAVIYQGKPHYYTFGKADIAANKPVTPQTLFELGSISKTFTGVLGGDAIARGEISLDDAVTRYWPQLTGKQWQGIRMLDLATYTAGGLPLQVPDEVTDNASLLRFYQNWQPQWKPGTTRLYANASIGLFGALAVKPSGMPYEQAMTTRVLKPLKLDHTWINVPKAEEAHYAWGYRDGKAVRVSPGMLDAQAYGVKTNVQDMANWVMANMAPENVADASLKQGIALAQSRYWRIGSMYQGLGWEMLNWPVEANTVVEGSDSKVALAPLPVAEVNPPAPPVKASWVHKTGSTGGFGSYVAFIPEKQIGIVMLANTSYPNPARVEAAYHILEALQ
T6 sequence (Q06778 21-266): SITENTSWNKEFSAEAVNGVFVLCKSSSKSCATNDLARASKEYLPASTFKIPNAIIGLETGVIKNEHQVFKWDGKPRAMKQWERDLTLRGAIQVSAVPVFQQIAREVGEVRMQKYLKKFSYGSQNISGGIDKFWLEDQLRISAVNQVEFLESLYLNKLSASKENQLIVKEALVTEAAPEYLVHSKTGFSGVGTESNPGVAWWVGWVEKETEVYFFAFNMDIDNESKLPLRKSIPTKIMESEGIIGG
T7 sequence (Q51574 22-275): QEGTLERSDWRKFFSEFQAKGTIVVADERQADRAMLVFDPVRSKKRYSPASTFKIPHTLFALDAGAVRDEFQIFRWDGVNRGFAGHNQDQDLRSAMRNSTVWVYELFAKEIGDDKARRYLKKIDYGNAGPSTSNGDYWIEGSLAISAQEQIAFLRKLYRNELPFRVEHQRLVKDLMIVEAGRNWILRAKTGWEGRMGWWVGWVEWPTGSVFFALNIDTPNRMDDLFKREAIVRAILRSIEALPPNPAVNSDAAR
T2 sequence (P0AD64 22-286): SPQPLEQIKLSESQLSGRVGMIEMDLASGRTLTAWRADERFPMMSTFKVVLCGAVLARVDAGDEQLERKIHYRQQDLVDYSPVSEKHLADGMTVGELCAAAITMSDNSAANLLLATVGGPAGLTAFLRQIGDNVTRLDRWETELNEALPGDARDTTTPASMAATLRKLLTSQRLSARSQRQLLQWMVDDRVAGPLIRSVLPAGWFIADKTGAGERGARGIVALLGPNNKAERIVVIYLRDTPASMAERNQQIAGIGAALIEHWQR
T4 sequence (Q9F663 25-293 limits assumed): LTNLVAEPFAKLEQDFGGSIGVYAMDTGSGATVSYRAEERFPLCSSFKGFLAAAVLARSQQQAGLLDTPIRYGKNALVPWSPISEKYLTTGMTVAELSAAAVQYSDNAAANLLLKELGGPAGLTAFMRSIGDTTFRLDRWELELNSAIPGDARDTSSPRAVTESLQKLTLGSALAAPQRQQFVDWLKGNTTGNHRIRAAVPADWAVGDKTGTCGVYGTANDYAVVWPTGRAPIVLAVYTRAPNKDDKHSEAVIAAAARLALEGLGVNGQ

SMILES: O=C1N2CC(c3cccnc3)=CC(C2)N1OS(=O)(=O)[O-].[Na+] (centres unmarked) [Example 41, Sodium [3-(3-pyridyl)-7-oxo-1,6-diazabicyclo[3.2.1]oct-3-en-6-yl]sulfate]
- IC50 (TEM-1): 0.0018 µM
- IC50 (SHV-1): 0.0036 µM
- IC50 (CTX-M-15): 0.0026 µM
- IC50 (KPC-2): 0.009 µM
- IC50 (OXA-1): 1.4 µM
- IC50 (OXA-11): 0.84 µM
- IC50 (OXA-15): 0.15 µM
- IC50 (OXA-48): 0.0014 µM
- MIC [1]: 16 µg/mL
- MIC (E. cloacae P99 (AmpC)): 8 µg/mL
- MIC [2]: 4 µg/mL
- MIC [3]: 16 µg/mL
- MIC [4]: 4 µg/mL
- MIC (E. coli RGN238 (OXA-1)): 32 µg/mL
- MIC [5]: 4 µg/mL
- MIC [6]: 8 µg/mL
- MIC [7]: 16 µg/mL
- MIC [8]: 16 µg/mL
- MIC [9]: 16 µg/mL
- MIC [10]: 16 µg/mL
- MIC [11]: 8 µg/mL
- MIC [12]: 16 µg/mL
- MIC [13]: 4 µg/mL
- MIC [14]: 8 µg/mL
- MIC [15]: > 32 µg/mL
- MIC combination of CAZ and compounds of the invention at 4 μg/mL [16]: <0.25 µg/mL
- MIC combination of CAZ and compounds of the invention at 4 μg/mL [17]: <0.25 µg/mL
- IC50 (AmpC (P99)): 0.04 µM
- IC50 (AmpC P. aeruginosa): 0.19 µM
